The results in this text go back to article PMC6253765, “Synthesis and Herbicidal Activities of Novel 4-(4-(5-methyl-3-arylisoxazol-4-yl)thiazol-2-yl)piperidyl Carboxamides and Thiocarboxamides” (Molecules, 2009).

Broadly, the Ki is a measure of affinity in units of concentration, obtained from inhibition or displacement. Low values mean higher affinity, high ones lower affinity.

The assay deals with T1, D1 protease (CtpA) (Spinacia oleracea, UniProt Q36792).
T1 construct: native spinach CtpA protein purified from spinach thylakoid
T1 sequence (Q36792 147-539): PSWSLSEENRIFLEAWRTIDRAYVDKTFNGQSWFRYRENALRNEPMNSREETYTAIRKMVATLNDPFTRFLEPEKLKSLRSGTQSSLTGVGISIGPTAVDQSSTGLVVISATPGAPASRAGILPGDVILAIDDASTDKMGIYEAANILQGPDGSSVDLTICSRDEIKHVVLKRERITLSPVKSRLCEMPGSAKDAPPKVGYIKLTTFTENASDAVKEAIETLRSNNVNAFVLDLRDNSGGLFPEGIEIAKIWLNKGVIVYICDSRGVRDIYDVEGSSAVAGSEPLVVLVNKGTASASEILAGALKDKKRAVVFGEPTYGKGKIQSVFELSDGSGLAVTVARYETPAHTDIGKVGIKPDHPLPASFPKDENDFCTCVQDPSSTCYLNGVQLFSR
Description: HPLC assay of cleavage of S24 peptide substrate; Dixon plot. The class given is biochemical.

`CCCCNC(=O)N1CCC(c2nc(-c3c(-c4ccccc4F)noc3C)cs2)CC1` [4m, N-butyl-4-(4-(3-(2-fluorophenyl)-5-methylisoxazol-4-yl)thiazol-2-yl)piperidine-1-carboxamide] displayed a Ki of 1.3 µM.
